Reference: US4562068A, “Sebosuppressive cosmetic preparations containing aryloxobutenoic acid derivatives” (Henkel Kommanditgesellschaft auf Aktien, priority 1982, dated 1985)

Tested on: brown cutaneous surface lipid of the rats
Assay: Testing for anti-seborrheic activity: brown discoloration (brown cutaneous surface lipid) on shaved backs of male Wistar rats after topical application
Format: in vivo
Settings: 9 applications in 14 days; for Evaluation Method 1 (percentage of evaluators recognizing an effect): topical on one side of back fur, 6 male Wistar rats
Description: The anti-seborrheic activity of aryloxobutenoic acid derivatives was examined closely in the animal experiments described hereinafter. The experimental animals were male Wistar rats weighing from 220 to 230 gm. A degree of brown discoloration on the shaved backs of the rats was established visually; the brown discoloration was caused by the brown cutaneous surface lipid of the rats. This test is based upon the observation that young female rats as well as male rats that were washed with tenside solution and a lipid solvent, respectively, as well as male rats that were treated systematically with estrogen, show only the normal light-colored pink skin after shaving; parallel to this, only relatively very small amounts of lipid can be extracted from the shorn hair.
For evaluation of anti-seborrheic activity, the test substances set forth in the table below, each in solution in ethanol, were each brushed on one side of the back fur of six rats. The other side was treated only with the solvent without the active substance (control side). During the testing period of 14 days, application of test substance was made once a day on a total of 9 days. A group of 6 rats that remained completely untreated served as an additional control. At the end of the testing, the animals were shaved on the back and the flanks and inspected visually, this inspection being done independently by an evaluation panel (6 persons) under doubleblind conditions.
Three criteria were rated. The first criterion was whether the majority of the evaluators recognized the treated side properly. The differentiations were as follows:
The second criterion was the difference between the right and left sides, one point each to be given per evaluator and animal, in the manner that the darker side was rated 1, the lighter side was rated 0, and uniformity of both sides were rated 0.5.
Significant differences between the untreated and the treated side according to the second method of evaluation indicate the topical effectiveness of a substance.
The third criterion was the rating of the difference in intensity of the brown shades according to the following scale:
According to the third method of evaluation, the differences in the point totals between the untreated control animals and the treated and untreated sides, respectively, of the experimental animal group were calculated where significant differences between control animals and the treated side of the experimental animals indicate the effect of a substance. Similarly, a distinct difference between the untreated and the treated sides of the experimental animal groups is also generally noticeable. However, this is not always as distinct as that between control animals and treated sides, which may be due to various reasons, as, for example, mechanical transfer of substance from one side to the other or solvent influence.
The differentiation of the effects according to the methods of evaluation 2 and 3 was characterized in the following manner:
In addition, the percentage of sebum reduction was calculated by dividing the point difference (ΔP) by the number of points for the control group (Pk) and multiplying by 100%, as follows: […]

[1] = Rattus norvegicus, 336 h, 0.1% in ethanol, topical, point difference (ΔP) / points of control group (Pk) x 100%, read-out: Sebum Reduction
[2] = Rattus norvegicus, 336 h, 0.5% in ethanol, topical, point difference (ΔP) / points of control group (Pk) x 100%, read-out: Sebum Reduction

Compound	Evaluation Method 1 (percentage of evaluators recognizing an effect) (0.1% in ethanol)	inhibition in vivo at 0.1 % [1]	further results
CCOC(=O)C=CC(=O)c1ccc(Cl)cc1 [Example 1, 4-(4'-Chloro-phenyl)-4-oxo-but-2-enoic acid ethyl ester]	–	–	Evaluation Method 1 (percentage of evaluators recognizing an effect) (0.25% in ethanol): ++ (100%); inhibition in vivo at 0.25 % (Rattus norvegicus, 336 h, 0.25% in ethanol, topical, point difference (ΔP) / points of control group (Pk) x 100%, read-out: Sebum Reduction): 84%
CCOC(=O)C=CC(=O)c1ccccc1 [Example 2, 4-Phenyl-4-oxo-but-2-enoic ethyl ester]	++ (100%)	–	–
CC(C)OC(=O)C=CC(=O)c1ccccc1 [Example 3, 4-Phenyl-4-oxo-but-2-enoic isopropyl ester]	++ (100%)	68%	–
CCCCOC(=O)C=CC(=O)c1ccccc1 [Example 4, 4-Phenyl-4-oxo-but-2-enoic acid butyl ester]	++ (100%)	66%	–
CCOC(=O)C=CC(=O)c1ccc(OC)c(OC)c1 [Example 5, 4-(3',4'-Dimethoxy-phenyl)-4-oxo-but-2-enoic acid ethyl ester]	++ (100%)	65%	–
CCCCOc1ccc(C(=O)C=CC(=O)OCC)cc1 [Example 6, 4-(4'-Butoxy-phenyl)-4-oxo-but-2-enoic acid ethyl ester]	–	–	Evaluation Method 1 (percentage of evaluators recognizing an effect) (0.5% in ethanol): ++ (100%); inhibition in vivo at 0.5 % [2]: 42%
CCOC(=O)C=CC(=O)c1ccc(OC)c(OC)c1O [Example 8, 4-(3',4'-Dimethoxy-2'-hydroxy-phenyl)-4-oxo-but-2-enoic acid ethyl ester]	–	–	Evaluation Method 1 (percentage of evaluators recognizing an effect) (0.5% in ethanol): ++ (100%); inhibition in vivo at 0.5 % [2]: 69%
CCOC(=O)C=CC(=O)c1ccc(NC(C)=O)cc1 [Example 9, 4-(4'-Acetylamino-phenyl)-4-oxo-but-2-enoic acid ethyl ester]	++ (100%)	84%	–
CCOC(=O)C=CC(=O)c1ccc(Cl)cc1Cl [Example 10, 4-(2',4'-Dichloro-phenyl)-4-oxo-but-2-enoic acid ethyl ester]	++ (100%)	27%	–
